Test results reported in patent publication US20260166128A1, “HUMAN AMYLIN ANALOG, AND DERIVATIVE THEREOF AND USE THEREOF” (priority 2022, published 2026).
Numbered stars: 1 amine (or outer) side, 2 acyl side, 3 side chain; on linkers, the order of the positions; unused ones are H or OH. Bridge positions count the residues as written; N and C are the ends. Square brackets hold non-standard residues; d marks the D form. Peptide text beside a SMILES is read from it. * marks the point of attachment. C20 diacid = O=C(O)CCCCCCCCCCCCCCCCCCC(=O)*; γGlu = O=C(O)[C@H](CCC(=O)[*:2])N[*:1]; Hyp = O=C(O)[C@@H]1C[C@@H](O)CN1; X3 = O=C(C1CCC(CN[*:1])CC1)[*:2]; AEEA = NCCOCCOCC(=O)O; Aoc = NCCCCCCCC(=O)O; Inp = O=C(O)C1CCNCC1; Sar = CNCC(=O)O

These compounds were tested against T1, human amylin receptor (Homo sapiens, UniProt O60896+P30988) (assay: Luciferase assay of amylin derivatives in amylin receptor/CRE-luc CHO cell line). Conditions: CHO-K1/Ga15/AMY3 CRE-luc cells, 24 hours incubation, F12 medium containing 10% FBS; read-out: EC50.
T1 construct: host or cells: CHO-K1/Ga15/AMY3 cells, further stably transfected with a CRE-luciferase plasmid
T1 sequence (P30988 25-474): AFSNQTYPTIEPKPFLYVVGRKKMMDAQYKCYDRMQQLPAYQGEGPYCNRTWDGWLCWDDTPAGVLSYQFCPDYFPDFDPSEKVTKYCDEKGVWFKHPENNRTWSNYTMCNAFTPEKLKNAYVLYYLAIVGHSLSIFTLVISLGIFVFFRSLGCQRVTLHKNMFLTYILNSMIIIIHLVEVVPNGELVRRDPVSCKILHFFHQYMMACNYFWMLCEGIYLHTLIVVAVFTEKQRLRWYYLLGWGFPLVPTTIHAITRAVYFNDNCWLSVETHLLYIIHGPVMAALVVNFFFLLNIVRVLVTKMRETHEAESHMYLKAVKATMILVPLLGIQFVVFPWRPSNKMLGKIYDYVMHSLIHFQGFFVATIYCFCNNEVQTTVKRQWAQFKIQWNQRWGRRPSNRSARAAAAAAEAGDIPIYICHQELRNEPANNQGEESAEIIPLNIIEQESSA
T1 sequence (O60896 24-148 partner): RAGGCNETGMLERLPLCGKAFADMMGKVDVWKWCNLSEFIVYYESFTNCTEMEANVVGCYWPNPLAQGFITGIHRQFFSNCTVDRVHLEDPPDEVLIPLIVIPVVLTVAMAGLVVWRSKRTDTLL
Assay type: cell-based
Description: The experiment was intended to detect the activity or efficacy of the amylin derivatives on a human amylin receptor in vitro by luciferase assay.
50 μL of growth medium (F12 medium containing 10% FBS) was added into each well of a white 96-well plate, and the stably transfected amylin/CRE-lue CHO cells were inoculated into the white 96-well plate at a density of about 20,000 cells/well for activity determination.

EC50 | SMILES
0.075 nM | CC[C@H](C)[C@H](NC(=O)[C@@H]1CCCN1C(=O)CN(C)C(=O)[C@H](CC(C)C)NC(=O)[C@H](CC(N)=O)NC(=O)[C@H](CC(N)=O)NC(=O)[C@H](CO)NC(=O)[C@H](CO)NC(=O)[C@H](Cc1c[nH]cn1)NC(=O)[C@H](CCCNC(=N)N)NC(=O)[C@H](CC(C)C)NC(=O)[C@H](Cc1ccccc1)NC(=O)[C@H](CC(=O)O)NC(=O)[C@H](C)NC(=O)[C@H](CC(C)C)NC(=O)[C@H](CCCNC(=N)N)NC(=O)[C@H](CCC(N)=O)NC(=O)[C@@H](NC(=O)[C@H](C)NC(=O)[C@@H]1CSSC[C@H](NC(=O)[C@H](CCCCN)NC(=O)CC[C@H](NC(=O)CCCCCCCCCCCCCCCCCCC(=O)O)C(=O)O)C(=O)N[C@@H](CC(N)=O)C(=O)N[C@@H]([C@@H](C)O)C(=O)N[C@@H](C)C(=O)N[C@@H]([C@@H](C)O)C(=O)N1)[C@@H](C)O)C(=O)N[C@@H](CC(C)C)C(=O)N1CCC[C@H]1C(=O)N1CCC[C@H]1C(=O)N[C@H](C(=O)N[C@@H](CC(N)=O)C(=O)N[C@H](C(=O)NCC(=O)N[C@@H](CO)C(=O)N[C@@H](CC(N)=O)C(=O)N[C@H](C(=O)N1CCC[C@H]1C(N)=O)[C@@H](C)O)C(C)C)[C@@H](C)O [PD172] ({C20 diacid-γGlu}-KCNTATCATQRLADFLRHSSNNL[Sar]PILPPTNVGSNTP-NH2; disulfide 2-7 (inferred))
0.064 nM | CC[C@H](C)[C@H](NC(=O)[C@@H]1CCCN1C(=O)C1CCC(CNC(=O)[C@H](CC(C)C)NC(=O)[C@H](CC(N)=O)NC(=O)[C@H](CC(N)=O)NC(=O)[C@H](CO)NC(=O)[C@H](CO)NC(=O)[C@H](Cc2c[nH]cn2)NC(=O)[C@H](CCCNC(=N)N)NC(=O)[C@H](CC(C)C)NC(=O)[C@H](Cc2ccccc2)NC(=O)[C@H](CC(=O)O)NC(=O)[C@H](C)NC(=O)[C@H](CC(C)C)NC(=O)[C@H](CCCNC(=N)N)NC(=O)[C@H](CCC(N)=O)NC(=O)[C@@H](NC(=O)[C@H](C)NC(=O)[C@@H]2CSSC[C@H](NC(=O)[C@H](CCCCN)NC(=O)CC[C@H](NC(=O)CCCCCCCCCCCCCCCCCCC(=O)O)C(=O)O)C(=O)N[C@@H](CC(N)=O)C(=O)N[C@@H]([C@@H](C)O)C(=O)N[C@@H](C)C(=O)N[C@@H]([C@@H](C)O)C(=O)N2)[C@@H](C)O)CC1)C(=O)N[C@@H](CC(C)C)C(=O)N1CCC[C@H]1C(=O)N1CCC[C@H]1C(=O)N[C@H](C(=O)N[C@@H](CC(N)=O)C(=O)N[C@H](C(=O)NCC(=O)N[C@@H](CO)C(=O)N[C@@H](CC(N)=O)C(=O)N[C@H](C(=O)N1CCC[C@H]1C(N)=O)[C@@H](C)O)C(C)C)[C@@H](C)O (some centres unmarked) [PD173] ({C20 diacid-γGlu}-KCNTATCATQRLADFLRHSSNNL[X3]PILPPTNVGSNTP-NH2; disulfide 2-7)
0.046 nM | CC[C@H](C)[C@H](NC(=O)[C@@H]1CCCN1C(=O)CCCCCCCNC(=O)[C@H](CC(C)C)NC(=O)[C@H](CC(N)=O)NC(=O)[C@H](CC(N)=O)NC(=O)[C@H](CO)NC(=O)[C@H](CO)NC(=O)[C@H](Cc1c[nH]cn1)NC(=O)[C@H](CCCNC(=N)N)NC(=O)[C@H](CC(C)C)NC(=O)[C@H](Cc1ccccc1)NC(=O)[C@H](CC(=O)O)NC(=O)[C@H](C)NC(=O)[C@H](CC(C)C)NC(=O)[C@H](CCCNC(=N)N)NC(=O)[C@H](CCC(N)=O)NC(=O)[C@@H](NC(=O)[C@H](C)NC(=O)[C@@H]1CSSC[C@H](NC(=O)[C@H](CCCCN)NC(=O)CC[C@H](NC(=O)CCCCCCCCCCCCCCCCCCC(=O)O)C(=O)O)C(=O)N[C@@H](CC(N)=O)C(=O)N[C@@H]([C@@H](C)O)C(=O)N[C@@H](C)C(=O)N[C@@H]([C@@H](C)O)C(=O)N1)[C@@H](C)O)C(=O)N[C@@H](CC(C)C)C(=O)N1CCC[C@H]1C(=O)N1CCC[C@H]1C(=O)N[C@H](C(=O)N[C@@H](CC(N)=O)C(=O)N[C@H](C(=O)NCC(=O)N[C@@H](CO)C(=O)N[C@@H](CC(N)=O)C(=O)N[C@H](C(=O)N1CCC[C@H]1C(N)=O)[C@@H](C)O)C(C)C)[C@@H](C)O [PD174] ({C20 diacid-γGlu}-KCNTATCATQRLADFLRHSSNNL[Aoc]PILPPTNVGSNTP-NH2; disulfide 2-7)
0.029 nM | CC[C@H](C)[C@H](NC(=O)[C@@H]1CCCN1C(=O)[C@H](CCCCN)NC(=O)[C@H](CC(C)C)NC(=O)[C@H](CC(N)=O)NC(=O)[C@H](CC(N)=O)NC(=O)[C@H](CO)NC(=O)[C@H](CO)NC(=O)[C@H](Cc1c[nH]cn1)NC(=O)[C@H](CCCNC(=N)N)NC(=O)[C@H](CC(C)C)NC(=O)[C@H](Cc1ccccc1)NC(=O)[C@H](CC(=O)O)NC(=O)[C@H](C)NC(=O)[C@H](CC(C)C)NC(=O)[C@H](CCCNC(=N)N)NC(=O)[C@H](CCC(N)=O)NC(=O)[C@@H](NC(=O)[C@H](C)NC(=O)[C@@H]1CSSC[C@H](NC(=O)[C@H](CCCCN)NC(=O)CC[C@H](NC(=O)COCCOCCNC(=O)COCCOCCNC(=O)CCCCCCCCCCCCCCCCCCC(=O)O)C(=O)O)C(=O)N[C@@H](CC(N)=O)C(=O)N[C@@H]([C@@H](C)O)C(=O)N[C@@H](C)C(=O)N[C@@H]([C@@H](C)O)C(=O)N1)[C@@H](C)O)C(=O)N[C@@H](CC(C)C)C(=O)N1CCC[C@H]1C(=O)N1CCC[C@H]1C(=O)N[C@H](C(=O)N[C@@H](CC(N)=O)C(=O)N[C@H](C(=O)NCC(=O)N[C@@H](CO)C(=O)N[C@@H](CC(N)=O)C(=O)N[C@H](C(=O)N1C[C@H](O)C[C@H]1C(N)=O)[C@@H](C)O)C(C)C)[C@@H](C)O [PD176] ({C20 diacid-AEEA-AEEA-γGlu}-KCNTATCATQRLADFLRHSSNNLKPILPPTNVGSNT[Hyp]-NH2; disulfide 2-7)
0.017 nM | CC[C@H](C)[C@H](NC(=O)[C@@H]1CCCN1C(=O)[C@H](CCCCN)NC(=O)[C@H](CC(C)C)NC(=O)[C@H](CC(N)=O)NC(=O)[C@H](CC(N)=O)NC(=O)[C@H](CO)NC(=O)[C@H](CO)NC(=O)[C@H](Cc1c[nH]cn1)NC(=O)[C@H](CCCNC(=N)N)NC(=O)[C@H](CC(C)C)NC(=O)[C@H](Cc1ccccc1)NC(=O)[C@H](CC(=O)O)NC(=O)[C@H](C)NC(=O)[C@H](CC(C)C)NC(=O)[C@H](CCCNC(=N)N)NC(=O)[C@H](CCC(N)=O)NC(=O)[C@@H](NC(=O)[C@H](C)NC(=O)[C@@H]1CSSC[C@H](NC(=O)[C@H](CCCCN)NC(=O)COCCOCCNC(=O)COCCOCCNC(=O)C2CCN(C(=O)CCCCCCCCCCCCCCCCCCC(=O)O)CC2)C(=O)N[C@@H](CC(N)=O)C(=O)N[C@@H]([C@@H](C)O)C(=O)N[C@@H](C)C(=O)N[C@@H]([C@@H](C)O)C(=O)N1)[C@@H](C)O)C(=O)N[C@@H](CC(C)C)C(=O)N1CCC[C@H]1C(=O)N1CCC[C@H]1C(=O)N[C@H](C(=O)N[C@@H](CC(N)=O)C(=O)N[C@H](C(=O)NCC(=O)N[C@@H](CO)C(=O)N[C@@H](CC(N)=O)C(=O)N[C@H](C(=O)N1C[C@H](O)C[C@H]1C(N)=O)[C@@H](C)O)C(C)C)[C@@H](C)O [PD179] ({C20 diacid-Inp-AEEA-AEEA}-KCNTATCATQRLADFLRHSSNNLKPILPPTNVGSNT[Hyp]-NH2; disulfide 2-7)
